± gives the expanded uncertainty stated by the source.
Assay: molar heat capacity at constant pressure; xn = mol fraction of the nth substance listed
Details: 100 kPa, Liquid, DSC

## CCOC(F)(C(F)(F)C(F)(F)C(F)(F)F)C(F)(C(F)(F)F)C(F)(F)F (stereo not given) [2-trifluoromethyl-3-ethoxydodecafluorohexane] + CC(C)OC(C)C
290.5 K, x1 = 0.25
  molar heat capacity at constant pressure: 277.26 ± 16 J/K/mol
290.5 K, x1 = 0.375
  molar heat capacity at constant pressure: 310.54 ± 18 J/K/mol
290.5 K, x1 = 0.5
  molar heat capacity at constant pressure: 342.56 ± 20 J/K/mol
290.5 K, x1 = 0.625
  molar heat capacity at constant pressure: 375.58 ± 21 J/K/mol
290.5 K, x1 = 0.75
  molar heat capacity at constant pressure: 407.39 ± 23 J/K/mol
295.44 K, x1 = 0.25
  molar heat capacity at constant pressure: 279.61 ± 16 J/K/mol
295.44 K, x1 = 0.375
  molar heat capacity at constant pressure: 312.95 ± 18 J/K/mol
295.44 K, x1 = 0.5
  molar heat capacity at constant pressure: 345.14 ± 20 J/K/mol
295.44 K, x1 = 0.625
  molar heat capacity at constant pressure: 378.55 ± 22 J/K/mol
295.44 K, x1 = 0.75
  molar heat capacity at constant pressure: 410.41 ± 24 J/K/mol
297.91 K, x1 = 1
  molar heat capacity at constant pressure: 466.29 ± 27 J/K/mol
300.38 K, x1 = 0.25
  molar heat capacity at constant pressure: 281.77 ± 16 J/K/mol
300.38 K, x1 = 0.375
  molar heat capacity at constant pressure: 315.36 ± 18 J/K/mol
300.38 K, x1 = 0.5
  molar heat capacity at constant pressure: 347.98 ± 20 J/K/mol
300.38 K, x1 = 0.625
  molar heat capacity at constant pressure: 381.52 ± 22 J/K/mol
300.38 K, x1 = 0.75
  molar heat capacity at constant pressure: 413.77 ± 24 J/K/mol
305.32 K, x1 = 0.25
  molar heat capacity at constant pressure: 284.47 ± 16 J/K/mol
305.32 K, x1 = 0.375
  molar heat capacity at constant pressure: 317.99 ± 18 J/K/mol
305.32 K, x1 = 0.5
  molar heat capacity at constant pressure: 350.3 ± 20 J/K/mol
305.32 K, x1 = 0.625
  molar heat capacity at constant pressure: 384.2 ± 22 J/K/mol
305.32 K, x1 = 0.75
  molar heat capacity at constant pressure: 416.46 ± 24 J/K/mol
307.79 K, x1 = 1
  molar heat capacity at constant pressure: 472.92 ± 27 J/K/mol
310.26 K, x1 = 0.25
  molar heat capacity at constant pressure: 287.71 ± 16 J/K/mol
310.26 K, x1 = 0.375
  molar heat capacity at constant pressure: 320.4 ± 18 J/K/mol
310.26 K, x1 = 0.5
  molar heat capacity at constant pressure: 353.14 ± 20 J/K/mol
310.26 K, x1 = 0.625
  molar heat capacity at constant pressure: 387.17 ± 22 J/K/mol
310.26 K, x1 = 0.75
  molar heat capacity at constant pressure: 419.82 ± 24 J/K/mol
315.2 K, x1 = 0.25
  molar heat capacity at constant pressure: 290.42 ± 17 J/K/mol
315.2 K, x1 = 0.375
  molar heat capacity at constant pressure: 322.81 ± 18 J/K/mol
315.2 K, x1 = 0.5
  molar heat capacity at constant pressure: 355.98 ± 20 J/K/mol
315.2 K, x1 = 0.625
  molar heat capacity at constant pressure: 390.14 ± 22 J/K/mol
315.2 K, x1 = 0.75
  molar heat capacity at constant pressure: 422.85 ± 24 J/K/mol
317.66 K, x1 = 1
  molar heat capacity at constant pressure: 479.54 ± 27 J/K/mol
320.13 K, x1 = 0.25
  molar heat capacity at constant pressure: 293.12 ± 17 J/K/mol
320.13 K, x1 = 0.375
  molar heat capacity at constant pressure: 325.66 ± 19 J/K/mol
320.13 K, x1 = 0.5
  molar heat capacity at constant pressure: 358.82 ± 21 J/K/mol
320.13 K, x1 = 0.625
  molar heat capacity at constant pressure: 393.11 ± 23 J/K/mol
320.13 K, x1 = 0.75
  molar heat capacity at constant pressure: 425.87 ± 25 J/K/mol
325.07 K, x1 = 0.25
  molar heat capacity at constant pressure: 295.64 ± 17 J/K/mol
325.07 K, x1 = 0.375
  molar heat capacity at constant pressure: 328.29 ± 19 J/K/mol
325.07 K, x1 = 0.5
  molar heat capacity at constant pressure: 361.66 ± 21 J/K/mol
325.07 K, x1 = 0.625
  molar heat capacity at constant pressure: 396.08 ± 23 J/K/mol
325.07 K, x1 = 0.75
  molar heat capacity at constant pressure: 428.9 ± 25 J/K/mol
327.54 K, x1 = 1
  molar heat capacity at constant pressure: 486.58 ± 28 J/K/mol
330.01 K, x1 = 0.25
  molar heat capacity at constant pressure: 298.16 ± 17 J/K/mol
330.01 K, x1 = 0.375
  molar heat capacity at constant pressure: 330.92 ± 19 J/K/mol
330.01 K, x1 = 0.5
  molar heat capacity at constant pressure: 364.5 ± 21 J/K/mol
330.01 K, x1 = 0.625
  molar heat capacity at constant pressure: 399.35 ± 23 J/K/mol
330.01 K, x1 = 0.75
  molar heat capacity at constant pressure: 432.26 ± 25 J/K/mol
334.95 K, x1 = 0.25
  molar heat capacity at constant pressure: 300.69 ± 17 J/K/mol
334.95 K, x1 = 0.375
  molar heat capacity at constant pressure: 333.77 ± 19 J/K/mol
334.95 K, x1 = 0.5
  molar heat capacity at constant pressure: 367.08 ± 21 J/K/mol
334.95 K, x1 = 0.625
  molar heat capacity at constant pressure: 402.32 ± 23 J/K/mol
334.95 K, x1 = 0.75
  molar heat capacity at constant pressure: 434.61 ± 25 J/K/mol
337.42 K, x1 = 1
  molar heat capacity at constant pressure: 494.03 ± 28 J/K/mol
339.89 K, x1 = 0.25
  molar heat capacity at constant pressure: 303.21 ± 17 J/K/mol
339.89 K, x1 = 0.375
  molar heat capacity at constant pressure: 336.4 ± 19 J/K/mol
339.89 K, x1 = 0.5
  molar heat capacity at constant pressure: 369.66 ± 21 J/K/mol
339.89 K, x1 = 0.625
  molar heat capacity at constant pressure: 405.29 ± 23 J/K/mol
339.89 K, x1 = 0.75
  molar heat capacity at constant pressure: 437.97 ± 25 J/K/mol
347.29 K, x1 = 1
  molar heat capacity at constant pressure: 500.66 ± 29 J/K/mol
357.17 K, x1 = 1
  molar heat capacity at constant pressure: 508.53 ± 29 J/K/mol
367.05 K, x1 = 1
  molar heat capacity at constant pressure: 517.23 ± 29 J/K/mol
376.92 K, x1 = 1
  molar heat capacity at constant pressure: 523.85 ± 30 J/K/mol
386.8 K, x1 = 1
  molar heat capacity at constant pressure: 531.72 ± 30 J/K/mol
